Test results: patent publication US9604944B2, “Arylpiperazine derivatives and methods of utilizing same” (REVIVA PHARMACEUTICALS, INC., priority 2009, dated 2017)
Where a name gives a salt, the structure may show the parent alone.

Legend:
[1] = molecular target: dopamine D2S receptor (human recombinant expressed in CHO cells) (Homo sapiens (Human), UniProt P14416); test: Dopamine, D2S (human recombinant) binding assay; settings: radioligand [3H]Spiperone
Method: Dopamine, D2S (human recombinant) binding assay
Materials and Methods: • Receptor Source: Human recombinant expressed in CHO cells • Radioligand: [^3H]Spiperone (20-60 Ci/mmol) • Control Compound: Haloperidol • Incubation Conditions: The reactions were carried out in 50 mM TRIS-HCl (pH 7.4) containing 120 mM NaCl, 5 mM KCl, 5 mM MgCl2, 1 mM EDTA for 60 minutes at 25 C. The reaction was terminated by rapid vacuum filtration onto glass fiber filters. Radioactivity trapped onto the filters was determined and compared to control values in order to ascertain any interactions of test compounds with the cloned dopamine—D2 short binding site (Literature Reference: Jarvis, K. R. et al. Journal of Receptor Research 1993, 13(1-4), 573-590; Gundlach, A. L. et al. Life Sciences 1984, 35, 1981-1988.)
(§1) The radioligand binding assays for dopamine-D2S, serotonin-5HT1A and serotonin-5HT2A were carried out at six different concentrations and the test concentrations were 0.5 nM, 1 nM, 10 nm, 100 nM, 300 nM and 1000 nM.

[2] = molecular target: serotonin 5-HT1A receptor (human recombinant expressed in HEK-293 cells) (Homo sapiens (Human), UniProt P08908); test: Serotonin, 5HT1A (human recombinant) binding assay; settings: radioligand [3H]-8-OH-DPAT; human recombinant in HEK-293 cells
Sequence of serotonin 5-HT1A receptor (human recombinant expressed in HEK-293 cells) (P08908 whole entry): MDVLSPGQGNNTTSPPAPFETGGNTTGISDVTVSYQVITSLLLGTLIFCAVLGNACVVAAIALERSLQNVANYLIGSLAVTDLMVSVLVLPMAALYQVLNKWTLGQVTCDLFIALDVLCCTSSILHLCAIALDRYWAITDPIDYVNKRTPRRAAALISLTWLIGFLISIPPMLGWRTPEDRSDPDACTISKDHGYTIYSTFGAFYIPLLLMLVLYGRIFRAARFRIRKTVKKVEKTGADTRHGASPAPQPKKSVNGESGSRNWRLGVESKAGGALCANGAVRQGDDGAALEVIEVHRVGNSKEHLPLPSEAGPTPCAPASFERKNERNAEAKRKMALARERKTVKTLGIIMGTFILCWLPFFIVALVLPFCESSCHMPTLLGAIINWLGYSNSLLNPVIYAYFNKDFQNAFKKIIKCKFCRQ
Method: Serotonin, 5HT1A (human recombinant) binding assay
Materials and Methods: • Receptor Source: Human recombinant expressed in HEK-293 cells • Radioligand: [^3H]-8-OH-DPAT (221 Ci/mmol) • Control Compound: 8-OH-DPAT • Incubation Conditions: The reactions were carried out in 50 mM TRIS-HCl (pH 7.4) containing 10 mM MgSO4, 0.5 mM EDTA and 0.1% Ascorbic acid at room temperature for 1 hour. The reaction was terminated by rapid vacuum filtration onto glass fiber filters. Radioactivity trapped onto the filters was determined and compared to control values in order to ascertain any interactions of test compounds with the cloned serotonin—5HT1A binding site (Literature Reference: Hoyer, D. et al. Eur. Journal Pharmacol. 1985, 118, 13-23; Schoeffter, P. and Hoyer, D. Naunyn-Schmiedeberg's Arch. Pharmac. 1989, 340, 135-138)
as §1

[3] = molecular target: serotonin 5-HT2A receptor (Human Cortex) (Homo sapiens (Human), UniProt P28223); test: Serotonin, 5HT2A (human) binding assay; settings: radioligand [3H]-Ketanserin
Sequence of serotonin 5-HT2A receptor (Human Cortex) (P28223 whole entry): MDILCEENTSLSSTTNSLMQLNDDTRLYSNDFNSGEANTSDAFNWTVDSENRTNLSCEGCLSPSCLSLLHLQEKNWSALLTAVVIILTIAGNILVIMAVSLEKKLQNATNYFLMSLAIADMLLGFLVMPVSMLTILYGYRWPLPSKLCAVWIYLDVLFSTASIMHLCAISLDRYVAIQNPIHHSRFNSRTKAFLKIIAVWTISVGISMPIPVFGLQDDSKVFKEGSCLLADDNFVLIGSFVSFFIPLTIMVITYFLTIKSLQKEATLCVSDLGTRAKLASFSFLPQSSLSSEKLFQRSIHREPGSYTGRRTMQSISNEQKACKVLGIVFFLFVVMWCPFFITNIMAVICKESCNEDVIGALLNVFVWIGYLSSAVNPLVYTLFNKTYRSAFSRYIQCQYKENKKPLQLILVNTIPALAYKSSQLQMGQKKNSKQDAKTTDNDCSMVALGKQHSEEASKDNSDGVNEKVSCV
Method: Serotonin, 5HT2A (human) binding assay
Materials and Methods: • Receptor Source: Human Cortex • Radioligand: [^3H]-Ketanserin (60-90 Ci/mmol) • Control Compound: Ketanserin • Incubation Conditions: The reactions were carried out in 50 mM TRIS-HCl (pH 7.6) at room temperature for 90 minutes. The reaction was terminated by rapid vacuum filtration onto glass fiber filters. Radioactivity trapped onto the filters was determined and compared to control values in order to ascertain any interactions of test compounds with the serotonin-5HT2A binding site (Literature Reference: Leysen, J. E. et al. Mol. Pharmacol. 1982, 21, 301-314; Martin, G. R. and Humphrey, P. P. A. Neuropharmacol. 1994, 33(3/4), 261-273.)
as §1

Sequence of dopamine D2S receptor (human recombinant expressed in CHO cells) (P14416 other isoform, or with tags, fused parts or gaps): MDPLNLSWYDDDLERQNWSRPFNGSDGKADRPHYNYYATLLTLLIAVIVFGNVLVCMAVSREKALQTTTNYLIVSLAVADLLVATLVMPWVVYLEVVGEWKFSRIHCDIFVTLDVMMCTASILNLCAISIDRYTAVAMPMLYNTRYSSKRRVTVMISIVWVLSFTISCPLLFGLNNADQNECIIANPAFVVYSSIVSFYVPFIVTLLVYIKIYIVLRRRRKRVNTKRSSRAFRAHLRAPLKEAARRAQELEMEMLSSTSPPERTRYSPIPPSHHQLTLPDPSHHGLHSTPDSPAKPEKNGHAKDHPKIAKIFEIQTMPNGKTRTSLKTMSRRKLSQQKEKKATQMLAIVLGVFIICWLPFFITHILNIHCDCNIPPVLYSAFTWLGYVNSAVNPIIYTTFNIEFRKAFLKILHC

SMILES | IC50 [1] [nM] | Ki [1] [nM] | IC50 [2] [nM] | Ki [2] [nM] | IC50 [3] [nM] | Ki [3] [nM]
COc1ccccc1N1CCN(CCCCOc2ccc3c(c2)NC(=O)CO3)CC1 [Compound 15a, 6-(4-(4-(2-Methoxyphenyl)piperazin-1-yl)butoxy)-2H-benzo[b][1,4]oxazin-3(4H)-one hydrochloride] | 0.98 | 0.3 | 0.97 | 0.65 | 262 | 118
O=C1COc2ccc(OCCCCN3CCN(c4cccc(Cl)c4Cl)CC3)cc2N1 [Compound 15b, 6-(4-(4-(2,3-Dichlorophenyl)piperazin-1-yl)butoxy)-2H-benzo[b][1,4]oxazin-3(4H)-one hydrochloride] |  |  | 2.25 | 1.5 | 130 | 58.5
